According to US20240342111A1, “ISOMER-SPECIFIC NEUROPROTECTIVE EFFECT OF NATURAL RESERVATROL” (priority 2021, published 2024):

Legend:
[1] = test system: Rat cortical neurons; assay: Oxidative stress (H2O2)-induced toxicity, viability; type: cell-based; details: 400 μM H2O2 24 hours, pre-treatment 16 hours
[2] = test system: OGG1; assay: Immunoblot for OGG1 protein; type: cell-based, rat; details: 5-50 μM, 4 hours
[3] = test system: Rat cortical neurons transfected with PARP1 siRNA; assay: siRNA knockdown of PARP1, trans-RSV neurotoxicity, MTT assay; type: cell-based; details: trans-RSV 50 μM, 72 hours
Experimental: Cell viability was assessed and quantified using MTT assay.
Primary cortical neuron cultures were obtained from E18 Sprague Dawley rats' cortices, which were dissected in Hibernate E (BrainBits) and dissociated using the Neural Tissue Dissociation kit (Miltenyi Biotec). For this, minced cortices were incubated in a pre-warmed enzyme mix at 37° C. for 15 min; tissues were then triturated and strained using a 40 μm cell strainer. After washing and centrifugation, neurons were seeded in 50 μg/ml poly-D-Lysine (Sigma Aldrich) coated tissue culture plates. NBActive-1 medium (BrainBits) supplemented with 100 U/ml of Penicillin-Streptomycin (Life Technologies), 2 mM L-Glutamine (Life Technologies), and 1 X N21 supplement (R&D Systems) was used as culture medium. Control (AM4635), TyrRS (s443), PARP1 (s130207) siRNA for transfection were obtained from Invitrogen. […]
Rat cortical neurons (DIV 10-11) were exposed to different treatments after seeding 20,000 cells/well in 96-well plates. Cell viability was then assessed at 48 hours after the initial exposure to NMDA. […] The percentage of MTT reduced as measured by the difference between the absorbances at 570 nm read in a spectrophotometer (Spectramax 190R Molecular Devices, UK). The percentage of reduction of MTT was calculated comparing the difference of the absorbance at 570 of each sample. […]

[4] = test system: Ac-K56-H3; details: diabetes patients, 500 mg/day; cited from earlier work

Compound	protection from toxicity induced by oxidative stress [1]	OGG1 protein levels [2]	effect of PARP1 siRNA knockdown on neurotoxicity [3]	levels of Ac-K56-H3 in PBMC [4]
Oc1ccc(/C=C\c2cc(O)cc(O)c2)cc1 [cis-RSV, cis-resveratrol]	protects neurons from toxicity induced by oxidative stress	downregulated both the protein levels of OGG1 and the levels of 8-oxo-dG		
Oc1ccc(/C=C/c2cc(O)cc(O)c2)cc1 [trans-RSV, trans-resveratrol]			protected against trans-RSV-mediated neurotoxicity	decreased levels of Ac-K56-H3
